Source: patent publication US20170066717A1, “NEW PHENYLAZETIDINECARBOXYLATE OR -CARBOXAMIDE COMPOUNDS” (INVENTIVA, priority 2014, published 2017)

Legend:
[1] = biological target: T1, NURR-1/RXRα (Homo sapiens, UniProt P19793); test: Transactivation test, NURR-1-Gal4/RXRα, luciferase reporter in Cos-7 cells; assay type: cell-based; conditions: for Emax: COS-7, induction level relative to reference XCT0135908 at 2×10^−5 M (=100%), read-out: hNurr1_RXRaFL Emax (%); for EC50: Cos-7 cells, NURR-1-Gal4/RXRα, luciferase reporter, read-out: hNurr1_RXRaFL EC50
T1 construct: expressed in transfected cells; host or cells: Cos-7 cells
T1 sequence (P19793 whole entry, the tested form may be a part): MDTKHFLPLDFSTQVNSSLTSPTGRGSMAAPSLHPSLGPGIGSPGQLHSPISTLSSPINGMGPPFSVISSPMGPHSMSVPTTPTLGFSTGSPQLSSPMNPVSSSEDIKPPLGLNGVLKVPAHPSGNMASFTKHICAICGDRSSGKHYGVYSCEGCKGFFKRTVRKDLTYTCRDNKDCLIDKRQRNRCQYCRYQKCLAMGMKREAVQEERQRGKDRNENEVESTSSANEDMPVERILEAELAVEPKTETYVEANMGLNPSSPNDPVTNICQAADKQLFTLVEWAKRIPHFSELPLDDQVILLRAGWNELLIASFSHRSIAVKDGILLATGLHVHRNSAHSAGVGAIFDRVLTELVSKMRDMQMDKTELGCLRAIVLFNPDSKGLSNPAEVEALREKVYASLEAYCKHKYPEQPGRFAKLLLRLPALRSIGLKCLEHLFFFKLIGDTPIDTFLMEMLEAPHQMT
T1 sequence (P43354 whole entry partner, the tested form may be a part): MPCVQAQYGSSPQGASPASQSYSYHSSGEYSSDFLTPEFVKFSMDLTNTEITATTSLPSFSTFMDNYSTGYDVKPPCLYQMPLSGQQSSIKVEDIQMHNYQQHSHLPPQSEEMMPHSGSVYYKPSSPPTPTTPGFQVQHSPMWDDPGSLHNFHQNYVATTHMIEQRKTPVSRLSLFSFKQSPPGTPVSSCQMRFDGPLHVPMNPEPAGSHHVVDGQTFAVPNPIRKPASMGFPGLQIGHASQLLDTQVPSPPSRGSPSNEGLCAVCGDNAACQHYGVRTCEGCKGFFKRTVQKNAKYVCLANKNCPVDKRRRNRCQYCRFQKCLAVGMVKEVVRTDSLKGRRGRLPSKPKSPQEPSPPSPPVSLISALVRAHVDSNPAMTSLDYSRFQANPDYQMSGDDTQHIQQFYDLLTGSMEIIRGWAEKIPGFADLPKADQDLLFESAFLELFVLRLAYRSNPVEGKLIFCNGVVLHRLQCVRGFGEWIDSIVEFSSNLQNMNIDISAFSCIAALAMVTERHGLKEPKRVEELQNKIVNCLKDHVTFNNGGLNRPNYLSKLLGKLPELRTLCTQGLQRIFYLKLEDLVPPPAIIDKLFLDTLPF
T1 sequence (P04386 1-147 partner limits assumed): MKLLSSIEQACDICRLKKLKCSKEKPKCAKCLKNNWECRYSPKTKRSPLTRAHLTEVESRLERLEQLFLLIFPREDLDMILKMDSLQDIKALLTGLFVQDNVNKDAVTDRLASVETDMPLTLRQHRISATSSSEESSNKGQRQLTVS

[2] = biological target: T2, NURR-1/RXRγ (Homo sapiens, UniProt P48443); test: Transactivation test, NURR-1-Gal4/RXRγ, luciferase reporter in Cos-7 cells; assay type: cell-based; conditions: for Emax: COS-7, induction level relative to reference XCT0135908 at 2×10^−5 M (=100%), read-out: hNurr1_RXRgFL Emax (%); for EC50: Cos-7 cells, NURR-1-Gal4/RXRγ, luciferase reporter, read-out: hNurr1_RXRgFL EC50
T2 construct: expressed in transfected cells; host or cells: Cos-7 cells
T2 sequence (P48443 whole entry, the tested form may be a part): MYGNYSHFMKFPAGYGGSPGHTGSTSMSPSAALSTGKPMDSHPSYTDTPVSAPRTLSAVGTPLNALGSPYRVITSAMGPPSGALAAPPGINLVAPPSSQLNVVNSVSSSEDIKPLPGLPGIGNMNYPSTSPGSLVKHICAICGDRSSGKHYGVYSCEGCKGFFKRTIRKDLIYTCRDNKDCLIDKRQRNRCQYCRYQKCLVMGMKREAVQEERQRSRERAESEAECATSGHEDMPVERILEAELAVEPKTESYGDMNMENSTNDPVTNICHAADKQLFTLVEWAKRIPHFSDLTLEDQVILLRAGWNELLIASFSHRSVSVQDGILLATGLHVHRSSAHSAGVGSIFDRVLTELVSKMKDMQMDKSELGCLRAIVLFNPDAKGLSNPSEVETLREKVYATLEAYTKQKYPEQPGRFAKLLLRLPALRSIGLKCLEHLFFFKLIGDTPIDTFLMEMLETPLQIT
T2 sequence (P43354 whole entry partner, the tested form may be a part): as the sequence (P43354 whole entry partner, the tested form may be a part) above
T2 sequence (P04386 1-147 partner limits assumed): as the sequence (P04386 1-147 partner limits assumed) above

| SMILES | Emax [1] [%] | EC50 [1] [nM] | Emax [2] [%] | EC50 [2] [nM] |
| --- | --- | --- | --- | --- |
| Cc1cn(S(=O)(=O)c2cccc(N3CC(C(=O)O)C3)c2)c2ccc(C(F)(F)F)cc12 [Example 59, 1-[3-[3-methyl-5-(trifluoromethyl)indol-1-yl]sulfonylphenyl]azetidine-3-carboxylic acid] | 68 | 1380 | 39 | 3580 |
| Cc1cc(N2CC(C(=O)O)C2)cc(S(=O)(=O)n2cc(C)c3cc(C(F)(F)F)ccc32)c1 [Example 60, 1-[3-methyl-5-[3-methyl-5-(trifluoromethyl)indol-1-yl]sulfonylphenyl]azetidine-3-carboxylic acid] | 40 | 898 | 24 | 1700 |
| CN1CC(C)(C)Oc2cc(C(F)(F)F)cc(-c3cccc(N4CC(C(=O)O)C4)c3)c21 [Example 63, 1-[3-[2,2,4-trimethyl-7-(trifluoromethyl)-3H-1,4-benzoxazine-5-yl]phenyl]azetidine-3-carboylic acid] | 86 | 2 | 82 | 5 |
| CCCC1CNc2c(cc(C(F)(F)F)cc2-c2cccc(N3CC(C(=O)O)C3)c2)O1 (stereo not shown) [Example 67, 1-[3-[2-propyl-7-(trifluoromethyl)-3,4-dihydro-2H-1,4-benzoxazin-5-yl]phenyl]azetidine-3-carboxylic acid] | 67 | 25 | 82 | 28 |
| CCCNc1ccc(C(C)C)cc1-c1cccc(N2CC(C(=O)O)C2)c1 [Example 68, 1-[3-[5-isopropyl-2-(propylamino)phenyl]phenyl]azetidine-3-carboxylic acid] | 127 | 9 | 143 | 12 |
| CC(C)c1cc2c(c(-c3cccc(N4CC(C(=O)O)C4)c3)c1)CCC(C)(C)O2 [Example 70, 1-[3-(7-isopropyl-2,2-dimethylchroman-5-yl)phenyl]azetidine-3-carboxylic acid] | 104 | 9 | 120 | 12 |
| O=C(O)C1CN(c2cccc(-c3cc(C(F)(F)F)cc(Cl)n3)c2)C1 [Example 74, 1-[3-[6-chloro-4-(trifluoromethyl)2-pyridyl]phenyl]azetidine-3-carboxylic acid] | 121 | 185 | 86 | 223 |
| CC(C)(C)c1cc(F)cc(-c2cccc(N3CC(C(=O)O)C3)c2)c1 [Example 75, 1-[3-(3-tert-butyl-5-fluorophenyl)phenyl]azetidine-3-carboxylic acid] | 106 | 57 | 85 | 40 |
| O=C(O)C1CN(c2cccc(-c3ccc(Cl)c(C(F)(F)F)n3)c2)C1 [Example 76, 1-[3-[5-chloro-6-(trifluromethyl)-2-pyridyl]phenyl]azetidine-3-carboxylic acid] | 71 | 741 | 51 | 2560 |
| O=C(O)C1CN(c2cccc(-c3cnc(Cl)c(C(F)(F)F)c3)c2)C1 [Example 77, 1-[3-[6-chloro-5-(trifluoromethyl)-3-pyridyl]phenyl]azetidine-3-carboxylic acid] | 67 | 423 | 105 | 1200 |
| O=C(O)C1CN(c2cccc(-c3cc(Cl)nc(C(F)(F)F)c3)c2)C1 [Example 78] | 93 | 207 | 98 | 339 |
| CN(C)c1nc(-c2cccc(N3CC(C(=O)O)C3)c2)cc(C(F)(F)F)n1 [Example 79, 1-[3-[2-(dimethylamino)-6-(trifluoromethyl)pyrimidin-4-yl]phenyl]azetidine-3-carboxylic acid] | 115 | 177 | 88 | 543 |
| CN(C)c1cc(C(F)(F)F)cc(-c2cccc(N3CC(C(=O)O)C3)c2)n1 [Example 80, 1-[3-[6-(dimethylamino)-4-(trifluoromethyl)2-pyridyl]phenyl]azetidine-3-carboxylic acid] | 104 | 316 | 89 | 335 |
| CC(C)(C)c1cc(-c2cccc(N3CC(C(=O)O)C3)c2)nc(C(C)(C)C)n1 [Example 81, 1-[3-(2,6-di-tert-butylpyrimidin-4-yl)phenyl]azetidine-3-carboxylic acid] | 108 | 50 | 107 | 112 |
| O=C(O)C1CN(c2cccc(-c3cc(OC(F)(F)F)cc4cccnc34)c2)C1 [Example 83, 1-[3-[6-(trifluoromethoxy)-8-quinolyl]phenyl]azetidine-3-carboxylic acid] | 67 | 282 | 68 | 596 |
| CC(C)(C)c1cccc(-c2cccc(N3CC(C(=O)O)C3)c2)c1 [Example 84, 1-[3-(3-tert-butylphenyl)phenyl]azetidine-3-carboxylic acid] | 112 | 44 | 120 | 82 |

| SMILES | Emax [1] [%] | EC50 [1] [nM] | Emax [2] [%] | EC50 [2] [nM] |
| --- | --- | --- | --- | --- |
| CC1(C(=O)O)CN(c2cccc(-c3ccc4c(c3)C(C)(C)CCC4(C)C)c2)C1 [Example 87] | 69 | > 5000 | 38 | > 5000 |
| CCCOc1ccc(C(F)(F)F)cc1-c1cccc(N2CC(C(=O)O)C2)c1 [Example 88, 1-[3-[2-propoxy-5-(trifluromethyl)phenyl]phenyl]azetidine-3-carboxylic acid] | 69 | 60 | 80 | 73 |
| CCCCOc1ccc(C(F)(F)F)cc1-c1cccc(N2CC(C(=O)O)C2)c1 [Example 89] | 61 | 23 | 64 | 21 |
| O=C(O)C1CN(c2cccc(-c3cc(C(F)(F)F)ccc3OCc3ccccc3)c2)C1 [Example 90, 1-[3-[2-benzyloxy-5-(trifluoromethyl)phenyl]phenyl]azetidine-3-carboxylic acid] | 67 | 6 | 57 | 7 |
| O=C(O)C1CN(c2cccc(-c3cc(C(F)(F)F)ccc3OCC3CCOC3)c2)C1 (stereo not shown) [Example 91] | 43 | 278 | 77 | 282 |
| COc1cccc(COc2ccc(C(F)(F)F)cc2-c2cccc(N3CC(C(=O)O)C3)c2)c1 [Example 92, 1-[3-[2-[(3-methoxyphenyl)methoxy]-5-(trifluoromethyl)phenyl]phenyl]azetidine-3-carboxylic acid] | 59 | 29 | 36 | 93 |
| O=C(O)C1CN(c2cccc(-c3cc(C(F)(F)F)ccc3OCCc3ccccc3)c2)C1 [Example 93, 1-[3-[2-phenyethyloxy-5-(trifluromethyl)phenyl]phenyl]azetidine-3-carboxylic acid] | 58 | 33 | 42 | 31 |
| O=C(O)C1CN(c2cccc(-c3cc(C(F)(F)F)ccc3OCc3cccs3)c2)C1 [Example 96] | 117 | 7 | 96 | 10 |
| O=C(O)C1CN(c2cccc(-c3cc(C(F)(F)F)ccc3OCc3ccccc3Cl)c2)C1 [Example 97, 1-[3-[2-[(2-chlorophenyl)methyoxy]-5-(trifluoromethyl)phenyl]phenyl]azetidine-3-carboxylic acid] | 49 | 12 | 38 | 13 |
| O=C(O)C1CN(c2cccc(-c3cc(C(F)(F)F)ccc3OCc3ccc(F)cc3)c2)C1 [Example 99, 1-[3-[2-[(4-fluorophenyl),ethoxy]-5-(trifluroomethyl)phenyl]phenyl]azetidine-3-carboxylic acid] | 56 | 17 | 51 | 19 |
| CC(C)C(Oc1ccc(C(F)(F)F)cc1-c1cccc(N2CC(C(=O)O)C2)c1)C(C)C [Example 101, 1-[3-[2-(1-isopropyl-2-methlypropoxy)-5-(trifluoromethyl)phenyl]phenyl]azetidine-3-carboxylic acid] | 55 | 118 | 41 | 60 |
| COCCOc1ccc(C(F)(F)F)cc1-c1cccc(N2CC(C(=O)O)C2)c1 [Example 102, 1-[3-[2-(2-methoxyethoxy)-5-(trifluoromethyl)phenyl]phenyl]azetidine-3-carboxylic acid] | 97 | 159 | 94 | 125 |
| CCC(CC)COc1ccc(C(F)(F)F)cc1-c1cccc(N2CC(C(=O)O)C2)c1 [Example 103, 1-[3-[2-(2-ethylbutoxy)-5-(trifluoromethyl)phenyl]phenyl]azetidine-3-carboxylic acid] | 62 | 16 | 58 | 17 |
| CCC(C)Oc1ccc(C(F)(F)F)cc1-c1cccc(N2CC(C(=O)O)C2)c1 (stereo not shown) [Example 105, 1-[3-[2-sec-butoxy-5-(trifluoromethyl)phenyl]phenyl]azetidine-3-carboxylic acid] | 56 | 10 | 55 | 19 |
| Cc1cc(C)cc(COc2ccc(C(F)(F)F)cc2-c2cccc(N3CC(C(=O)O)C3)c2)c1 [Example 106, 1-[3-[2-[(3,5-dimethylphenyl)methoxy]-5-(trifluoromethyl)phenyl]phenyl]azetidine-3-carboxylic acid] | 40 | 13 | 36 | 13 |
